Read-outs that look alike come from different tables or passages of the source.
What was measured:
[1] = system: Trypanosoma brucei Lister 427 strain, bloodstream form; assay: Assay for proliferation of kinetoplastid parasite Trypanosoma brucei (Cell Titer Glo, 48 hours); assay type: cell-based; conditions: Trypanosoma brucei, T. brucei Lister 427 bloodstream form, read-out: T. brucei EC50
In short: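 Bloodstream-form T. brucei Lister 427 in HMI-9 medium was exposed to compound (DMSO vehicle) for 48 hours at 37° C, 5% CO2. Parasite growth was read as ATP by CellTiter-Glo luminescence, with EC50 calculated from percent inhibition.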

[2] = system: Leishmania donovani axenic amastigote parasites; assay: Leishmania donovani axenic amastigote proliferation assay (Cell TiterGlo luminescence, 2 day incubation); assay type: cell-based; conditions: Leishmania donovani, read-out: L. donovani amastigotes EC50
[3] = system: Trypanosoma cruzi amastigotes (Tulahuen strain expressing Lac-Z) cultured in 3T3 fibroblast cells; assay: microbe, parasite or virus in culture; assay type: cell-based; conditions: Trypanosoma cruzi, TULAHUEN, Fibroblast, T. cruzi amastigotes in 3T3 fibroblast cells, read-out: T cruzi EC50
[4] = system: L. donovani HU3 strain in mouse peritoneal macrophages; assay: Assay for proliferation of Leishmania parasites in infected mouse peritoneal macrophages (SybrGreen staining, high-content imaging, 5 days); assay type: cell-based, Leishmania donovani; conditions: Leishmania donovani, Peritoneal macrophage, L. donovani in mouse peritoneal macrophages, read-out: L. donovani Macrophage EC50
[5] = axenic amastigotes, inhibition of proliferation

| Compound | EC50 ([1]; inhibition of proliferation) [nM] | EC50 [2, 5] [nM] | EC50 ([3]; inhibition of proliferation) [nM] | EC50 ([4]; inhibition of proliferation) [nM] | EC50 [1] [nM] | EC50 ([2]; L. donovani axenic amastigotes) [nM] | EC50 [3] [nM] | EC50 [4] [nM] |
| --- | --- | --- | --- | --- | --- | --- | --- | --- |
| Cc1ncc(C(=O)Nc2ccc(F)c(-c3cn4cc(-c5ccccc5)cnc4n3)c2)o1 [Compound 329] | 55 | 26 | 7 | 57 | – | – | – | – |
| Cc1nc(C)c(C(=O)Nc2ccc(F)c(-c3cn4cc(NC(=O)C5CC5)cnc4n3)c2)o1 [Compound 248] | 169 | 191 | > 20000 | 411 | – | – | – | – |
| Cc1nc(C)c(C(=O)Nc2ccc(F)c(-c3cn4cc(NC(=O)C5(C)CC5)cnc4n3)c2)o1 [Compound 115] | 54 | 73 | 410 | 93 | – | – | – | – |
| CC(C)OC(=O)Nc1cnc2nc(-c3cc(NC(=O)c4cnco4)ccc3F)cn2c1 [Compound 78] | 553 | 307 | 1910 | 6410 | – | – | – | – |
| CC(C)OC(=O)Nc1cnc2nc(-c3cc(NC(=O)c4ccc(Br)s4)ccc3F)cn2c1 [Compound 82] | 4200 | 4990 | 1210 | 3900 | – | – | – | – |
| CC(C)OC(=O)Nc1cnc2nc(-c3cc(NC(=O)C4CCC4)ccc3F)cn2c1 [Compound 102] | 492 | 540 | 464 | 1710 | – | – | – | – |
| Cc1nnc(C(=O)Nc2cccc(-c3cn4cc(NC(=O)OC(C)C)cnc4n3)c2)o1 [Compound 526, isopropyl (2-(3-(5-methyl-1,3,4-oxadiazole-2-carboxamido)phenyl)imidazo[1,2-a]pyrimidin-6-yl)carbamate] | – | – | – | – | > 50000 | > 25000 | > 20000 | > 50000 |
| Cc1nc(C)c(C(=O)Nc2ccc(F)c(-c3cn4cc(C(C)C)cnc4n3)c2)o1 [Compound 412] | – | – | – | – | 40 | 46 | 48 | 134 |
| O=C(Nc1cnc2nc(-c3cc(NC(=O)N4CCCC4)ccc3F)cn2c1)C1CC1 [Compound 134] | 73 | 267 | 5200 | 8360 | – | – | – | – |
| CC(C)(C)OC(=O)N1CCOCC1C(=O)Nc1ccc(F)c(-c2cn3cc(C4CC4)cnc3n2)c1 (stereo not shown) [Compound 603] | – | – | – | – | 8170 | 17800 | 5840 | 12600 |
| CC(C)OC(=O)Nc1cnc2nc(-c3cc(NC(=O)N4CC(F)C4)ccc3F)cn2c1 [Compound 287] | 77 | 120 | 1430 | 402 | – | – | – | – |
| Cc1ncc(C(=O)Nc2ccc(Cl)c(-c3cn4cc(NC(=O)OC(C)C)cnc4n3)c2)o1 [Compound 47] | 128 | 77 | 442 | 220 | – | – | – | – |
| CCC(C)C(=O)Nc1ccc(F)c(-c2cn3cc(NC(=O)OC(C)C)cnc3n2)c1 (stereo not shown) [Compound 104] | 1210 | 2390 | 1340 | > 50000 | – | – | – | – |
| O=C(Nc1cnc2nc(-c3cc(NC(=O)N4CCCC4)ccc3F)cn2c1)c1ccccn1 [Compound 147] | 19 | 74 | 65 | 67 | – | – | – | – |
| CC(C)OC(=O)Nc1cnc2nc(-c3cc(NC(=O)[C@H](N)c4ccccc4)ccc3F)cn2c1 [Compound 85] | 32700 | > 25000 | 10800 | 15200 | – | – | – | – |
| Cc1ncc(C(=O)Nc2ccc(F)c(-c3cn4cc(C5=CCOCC5)cnc4n3)c2)o1 [Compound 330] | 36 | 28 | 104 | 114 | – | – | – | – |
| Cc1nc(C)c(C(=O)Nc2ccc(F)c(-c3cn4cc(C(F)(F)F)cnc4n3)c2)o1 [Compound 200] | 164 | 219 | 147 | 631 | – | – | – | – |
| CC(C)Nc1cnc2nc(-c3cc(NC(=O)N4CCCC4)ccc3F)cn2c1 [Compound 476] | – | – | – | – | 42 | 153 | 152 | 358 |
| Cc1nc(C)c(C(=O)N(C)c2ccc(F)c(-c3cn4cc(N(C)C(=O)OC(C)C)cnc4n3)c2)o1 [Compound 553] | – | – | – | – | 4290 | 3480 | 3110 | 3610 |
| Cc1nc(C)c(C(=O)Nc2ccc(F)c(-c3cn4cc(NC(=O)C5(C)CC(F)(F)C5)cnc4n3)c2)o1 [Compound 118] | 442 | 606 | 3380 | 2050 | – | – | – | – |
| Cc1nc(C(=O)Nc2cnc3nc(-c4cc(NC(=O)c5oc(C)nc5C)ccc4F)cn3c2)c(C)o1 [Compound 162] | 52 | 65 | 127 | 540 | – | – | – | – |
| Cc1nc(C)c(C(=O)Nc2ccc(F)c(-c3cn4cc(NC(=O)C5CCC(=O)O5)cnc4n3)c2)o1 (stereo not shown) [Compound 156] | 10600 | 3880 | > 20000 | > 50000 | – | – | – | – |

| Compound | EC50 ([1]; inhibition of proliferation) [nM] | EC50 [2, 5] [nM] | EC50 ([3]; inhibition of proliferation) [nM] | EC50 ([4]; inhibition of proliferation) [nM] | EC50 [1] [nM] | EC50 ([2]; L. donovani axenic amastigotes) [nM] | EC50 [3] [nM] | EC50 [4] [nM] |
| --- | --- | --- | --- | --- | --- | --- | --- | --- |
| Cc1nc(C)c(C(=O)Nc2ccc(F)c(-c3cn4cc(N(C)C(C)C)cnc4n3)c2)o1 [Compound 483] | – | – | – | – | 70 | 169 | 74 | 196 |
| Cc1ncc(C(=O)Nc2ccc(F)c(-c3cn4cc(NC(C)C)cnc4n3)c2)o1 [Compound 462] | – | – | – | – | 129 | 174 | 151 | 403 |
| CC(C)OC(=O)Nc1cnc2nc(-c3cc(NC(=O)c4ccc(S(C)(=O)=O)s4)ccc3F)cn2c1 [Compound 109] | > 50000 | > 25000 | > 20000 | 28200 | – | – | – | – |
| Cc1nc(C)c(C(=O)Nc2ccc(F)c(-c3cn4cc(NC(=O)c5c[nH]cn5)cnc4n3)c2)o1 [Compound 167] | 904 | 10800 | > 20000 | > 50000 | – | – | – | – |
| Cc1ncoc1C(=O)Nc1cccc(-c2cn3cc(NC(=O)OC(C)C)cnc3n2)c1 [Compound 204] | 676 | 941 | 4100 | 19200 | – | – | – | – |
| CC(C)OC(=O)Nc1ccc(F)c(-c2cn3cc(C(C)C)cnc3n2)c1 [Compound 414] | – | – | – | – | 131 | 217 | 115 | 1160 |
| CN(C)C(=O)Nc1ccc(F)c(-c2cn3cc(C(F)F)cnc3n2)c1 [Compound 239] | 350 | 515 | 372 | 2200 | – | – | – | – |
| CC(C)OC(=O)Nc1cnc2nc(-c3cc(NC(=O)c4cnc(C5CC5)o4)ccc3Cl)cn2c1 [Compound 60] | 1540 | 727 | 444 | 1100 | – | – | – | – |
| CN(C)c1cnc2nc(-c3cc(NC(=O)N4CC[C@@H](F)C4)ccc3F)cn2c1 [Compound 468] | – | – | – | – | 15 | 87 | 146 | 230 |
| COCN(C(=O)OC(C)C)c1cnc2nc(-c3cc(NC(=O)c4oc(C)nc4C)ccc3F)cn2c1 [Compound 554] | – | – | – | – | 664 | 814 | 1510 | 1850 |
| CC(C)OC(=O)Nc1cnc2nc(-c3cc(NC(=O)c4cn5cccnc5n4)ccc3Cl)cn2c1 [Compound 49] | > 50000 | > 25000 | > 20000 | > 50000 | – | – | – | – |
| Cc1ccc(-c2cnc3nc(-c4cc(NC(=O)c5oc(C)nc5C)ccc4F)cn3c2)nc1 [Compound 445] | – | – | – | – | 31 | 12 | 14 | 688 |
| Cc1nc(C)c(C(=O)Nc2ccc(F)c(-c3cn4cc(-c5ccc(N6CCN(C(C)C)CC6)cc5)cnc4n3)c2)o1 [Compound 382] | – | – | – | – | 2600 | 3880 | 1390 | 10700 |
| Cc1nnc(C(=O)Nc2ccc(Cl)c(-c3cn4cc(NC(=O)OC(C)C)cnc4n3)c2)o1 [Compound 527] | – | – | – | – | > 50000 | > 25000 | > 20000 | 5770 |
| CNCCc1ccc(-c2cnc3nc(-c4cc(NC(=O)c5oc(C)nc5C)ccc4F)cn3c2)cc1 [Compound 451] | – | – | – | – | 968 | 6470 | 1950 | 1930 |
| Cc1nc(C)c(C(=O)Nc2ccc(F)c(-c3cn4cc(-c5ccncc5)cnc4n3)c2)o1 [Compound 377] | – | – | – | – | 42 | 75 | 137 | 144 |
| CCCNc1cnc2nc(-c3cc(NC(=O)N4CCCC4)ccc3F)cn2c1 [Compound 474] | – | – | – | – | 203 | 292 | 478 | 1110 |
| COC1CCC(C(=O)Nc2cnc3nc(-c4cc(NC(=O)c5oc(C)nc5C)ccc4F)cn3c2)CC1 (stereo not shown) [Compound 169] | 523 | 700 | 3870 | 2420 | – | – | – | – |
| Cc1nc(C)c(C(=O)Nc2ccc(F)c(-c3cn4cc(NC(=O)C5CCCO5)cnc4n3)c2)o1 (stereo not shown) [Compound 149] | 516 | 241 | 1880 | 617 | – | – | – | – |
| COCCN(C(=O)OC(C)C)c1cnc2nc(-c3cc(NC(=O)c4oc(C)nc4C)ccc3F)cn2c1 [Compound 555] | – | – | – | – | 1570 | 3110 | 1320 | 5470 |
| CC(C)OC(=O)Nc1cnc2nc(-c3cc(NC(=O)c4cocn4)ccc3Cl)cn2c1 [Compound 43] | 474 | 782 | 409 | 3910 | – | – | – | – |

— patent US20160045505A1, “COMPOUNDS AND COMPOSITIONS FOR THE TREATMENT OF PARASITIC DISEASES” (NOVARTIS AG, priority 2013, published 2016)
